Test results published in patent US8003642B2, “Nitrogenated heterocyclic derivative, and pharmaceutical agent comprising the derivative as active ingredient” (Ono Pharmaceutical Co., Ltd., priority 2006, dated 2011).

Tests used:
[1] = target: T1, human CYP3A4 (Homo sapiens, UniProt P08684); assay: Inhibitory activity against human CYP3A4 (7-benzyloxyquinoline substrate, expression system microsome); type: in vitro ADME; conditions: substrate 7-BQ 40 μM, expression system microsome 0.25 mg/mL, 30 minutes incubation, fluorescence
T1 construct: purchased Daiichikagakuyakuhin
T1 sequence (P08684 whole entry): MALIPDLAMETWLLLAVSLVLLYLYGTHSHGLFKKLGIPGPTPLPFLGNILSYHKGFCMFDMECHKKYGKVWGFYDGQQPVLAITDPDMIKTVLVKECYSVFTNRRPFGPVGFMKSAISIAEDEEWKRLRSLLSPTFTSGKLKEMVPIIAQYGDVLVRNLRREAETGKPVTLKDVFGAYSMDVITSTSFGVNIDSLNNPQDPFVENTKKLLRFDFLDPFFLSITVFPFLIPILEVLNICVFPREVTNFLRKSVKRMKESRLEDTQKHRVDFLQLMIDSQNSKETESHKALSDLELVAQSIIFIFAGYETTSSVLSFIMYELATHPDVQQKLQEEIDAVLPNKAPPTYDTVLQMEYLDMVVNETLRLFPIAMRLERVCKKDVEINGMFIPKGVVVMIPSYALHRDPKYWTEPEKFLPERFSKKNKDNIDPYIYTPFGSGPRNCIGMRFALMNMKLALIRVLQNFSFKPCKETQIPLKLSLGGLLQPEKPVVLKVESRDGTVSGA
Experimental: Inhibitory activity against human CYP3A4 of the compound of the present invention can be evaluated by an improved method described in Drug Metabolism and Disposition, Vol. 28(12), 1440-1448 (2000).
For example, a reaction solution consisted of potassium phosphate buffer (pH 7.4) (final concentration: 200 mM), magnesium chloride hexahydrate (final concentration: 5 mM), substrate (7-benzyloxyquinoline (7-BQ), final concentration: 40 μM), and expression system microsome (Daiichikagakuyakuhin, final concentration: 0.25 mg/mL) was prepared. 100 μL of the reaction solution is dispensed in 96 well plate, and added by 50 μL of an aqueous solution containing test a compound and 0.8% acetonitrile, to carry out 10 minutes of preincubation at 37° C. 50 μL of a reduced nicotinamide adenine dinucleotide phosphate (NADPH, 4 mM) is added to initiate a reaction. The fluorescence intensity of each well was measured at the time when NADPH was added and after incubated for 30 minutes. Excitation wavelength at 409 nm and emission wavelength at 530 nm of quinolinol, which is metabolite of substrate, was measured. Inhibition ratio (%) of the test compound was calculated by the following calculation formula to obtain IC50 value. Inhibition ratio(%)=[1−{(measured value when a test compound is added)−(blank value)/(control value−blank value)}]×100

[2] = target: human CCR5 (Homo sapiens, UniProt P51681); assay: CCR5 binding test ([125I]MIP-1β binding inhibition); conditions: inhibition of [125I]MIP-1β (0.1 nM) binding to membrane fraction of human CCR5 stably over-expressing CHO-K1 cell, 25° C., 120 minutes
human CCR5, sequence (P51681 whole entry): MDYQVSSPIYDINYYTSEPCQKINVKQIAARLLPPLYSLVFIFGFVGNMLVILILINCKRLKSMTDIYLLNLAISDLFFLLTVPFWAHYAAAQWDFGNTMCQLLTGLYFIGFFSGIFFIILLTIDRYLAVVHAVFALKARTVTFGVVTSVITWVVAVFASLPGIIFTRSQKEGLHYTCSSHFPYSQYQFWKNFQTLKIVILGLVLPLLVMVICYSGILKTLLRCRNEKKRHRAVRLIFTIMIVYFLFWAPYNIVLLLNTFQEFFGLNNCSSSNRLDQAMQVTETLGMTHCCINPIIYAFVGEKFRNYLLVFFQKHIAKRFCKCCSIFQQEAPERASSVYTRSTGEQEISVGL
Experimental: A membrane fraction of the human CCR5 stably over-expressing CHO-K1 cell was suspended in assay buffer (50 mM HEPES/0.5% BSA/1 mM calcium chloride/5 mM magnesium chloride, pH 7.4) and dispensed in a 48 well polypropylene plate with U-shaped bottom in the amount corresponding to 1 μg of protein/well. Then, an unlabelled ligand was added so as to obtain a concentration of 0.1 μM in a non-specific binding group, while a compound was added so as to obtain a final concentration of 0.003 to 0.3 μM in a compound group. Subsequently, [^125I]MIP-1β was added so as to obtain a final concentration of 0.1 nM and a mixture thereof was incubated at 25° C. for 120 minutes. The membrane fraction was trapped with a filter, washed, and then radioactivity of [^125I]MIP-1β was measured by a γ counter.
Inhibition ratio (%) of the test compound was calculated by the following calculation formula. Inhibition ratio=[(Ec−Ea)/Ec]×100 • Ec: Radioactivity of when DMSO control solution is added−radioactivity of non-specific binding group • Ea: Radioactivity of when test compound is added−radioactivity of non-specific binding group

Which IC50 [1] does the source give for CCCCN(C(=O)Nc1cc(C(N)=O)c(F)cc1F)C1CCN(Cc2ccc(Oc3ccc(C(=O)N4CCN(C)CC4)cc3)nc2C)CC1 [Example 16(63), 5-[(butyl {1-[(2-methyl-6-{4-[(4-methyl-1-piperazinyl)carbonyl]phenoxy}-3-pyridinyl)methyl]-4-piperidinyl}carbamoyl)amino]-2,4-difluorobenzamide] here?
Its IC50 is ≥ 30 µM.

CCCCN(C(=O)Nc1cc(C(N)=O)c(F)cc1F)C1CCN(Cc2ccc(Oc3ccc(C(=O)N4CCN(C(C)=O)CC4)cc3)nc2C)CC1 [Example 16(60), 5-{[{1-[(6-{4-[(4-acetyl-1-piperazinyl)carbonyl]phenoxy}-2-methyl-3-pyridinyl)methyl]-4-piperidinyl}(butyl)carbamoyl]amino}-2,4-difluorobenzamide] was tested. Which IC50 [1] did it give?
Its IC50 is ≥ 30 µM.

CCCCN(C(=O)Nc1cc(C(N)=O)c(F)cc1F)C1CCN(Cc2ccc(Oc3ccc(C(=O)NCC)cc3)nc2C)CC1 [Example 16(62), 5-({butyl[1-({6-[4-(ethylcarbamoyl)phenoxy]-2-methyl-3-pyridinyl}methyl)-4-piperidinyl]carbamoyl}amino)-2,4-difluorobenzamide] was tested. Which IC50 [2] did it give?
Its IC50 is ≤ 0.1 µM.

What does the source list for CCCCN(C(=O)Nc1cc(C(N)=O)c(F)cc1F)C1CCN(Cc2ccc(Oc3ccc(C(=O)N(C)C)cc3)nc2C)CC1 [Example 16(61), 5-({butyl[1-({6-[4-(dimethylcarbamoyl)phenoxy]-2-methyl-3-pyridinyl}methyl)-4-piperidinyl]carbamoyl}amino)-2,4-difluorobenzamide]?
IC50 [2]: ≤ 0.1 µM; IC50 [1]: ≥ 30 µM
